# Source: patent publication US11260079B2, “Dosing regimens for the mobilization of hematopoietic stem and progenitor cells” (Magenta Therapeutics, Inc., priority 2017, dated 2022)
# Key:
# [1] = test system: white blood cells, neutrophils, lymphocytes and monocytes; conditions: Rhesus monkeys; plerixafor 1 mg/kg subcutaneously; median value
# Method: (§1) Male rhesus macaques were treated with AMD3100 alone or in combination with Gro-β T. Blood was collected immediately prior to and 0.5, 1, 2, 4 and 24 hours after treatment and analyzed by multicolor flow cytometry to quantitate HSPC numbers. Additional aliquots of mobilized blood were plated in methylcellulose and CFU were enumerated seven days later.
# Animals were mobilized with AMD3100 alone or in combination with Gro-β T. Peripheral blood was collected at the time points shown and white blood cells enumerated on a HESKA Hematology Analyzer. Total number of white blood cells, neutrophils, lymphocytes and monocytes per μL of peripheral blood were determined. Data shown in FIGS. 2-5 are expressed as mean±SEM and represent 5 animals per group. Statistical significance was determined based on 2-way ANOVA with post-hoc Dunnett's multiple comparisons test (** p<0.01).
# [2] = test system: CD34^+ hematopoietic stem and progenitor cells; conditions: Rhesus monkeys; plerixafor 1 mg/kg subcutaneously; median value
# Method: as §1
# (§2) The data shown in FIGS. 7 and 8 include the percentage of whole blood accounted for by CD34^+ hematopoietic stem and progenitor cells for each treatment group. Absolute numbers and fold change in CD34^+ cells per μL of peripheral blood were quantified with a single platform quantitative method. Data shown in FIGS. 7 and 8 are expressed as mean±SEM and represent 5 animals per group. Statistical significance was determined based on 2-way ANOVA with post-hoc Dunnett's multiple comparisons test (* p<0.05, ** p<0.01, **** p<0.0001).
# as §2, with “9” for “7”, “10” for “8”, “CD34^+ CD90^+ CD45RA^−” for “CD34^+”, “are shown.” for “were quantified with a single platform quantitative method.”, “p<0.05. **p<0.01, *** p<0.001,” for “p<0.05, ** p<0.01,”
# Additional data summarizing the mobilization of CD34^+ cells (e.g., CD34^+ CD90^+ CD45RA^− cells) in Rhesus monkeys using various doses of Gro-beta T and AMD3100 are reported in TABLES 8-11, below. Quantities are reported in TABLES 8-11 using the following notation: “Median value (Minimum value observed−maximum value observed).”
# [3] = test system: NOD scid gamma (NSG) mice; test: Xenograft GVHD model; assay type: in vivo; conditions: for numbers of T-cells as compared to mice transplanted with Gro-β T and AMD3100-mobilized PBMCs: NSG mice, day 14 post-transplant; for mice died of aGVHD at day 24 / mice remained alive at day 60 post-transplant: sublethally irradiated NSG mice transplanted with 6×10^6 mobilized PBMCs
# Method: To assess whether these immunosuppressive cells may prevent GVHD, we developed a xenograft GVHD model in NOD scid gamma (NSG) mice, which are immunodeficient mice. Gro-β T and AMD3100 mobilized peripheral blood (6×10^6 PBMCs) containing a high percentage of CD34^dim cells were injected into sublethally irradiated NSG mice. This was compared to unmobilized primate PBMCs (6×10^6 PBMCs) containing a relatively low numbers of CD34^dim cells and G-CSF mobilized primate PBMCs (6×10^6 PBMCs).
# [4] = test system: hematopoietic stem and progenitor cell mobilization; conditions: cited from earlier work; for potency of hematopoietic stem and progenitor cell mobilization relative to Gro-β: described in U.S. Pat. Nos. 6,080,398 and 6,447,766
# [5] = test system: stem and progenitor cells (LT-HSC); test: Mobilization of stem and progenitor cells in mice; assay type: in vivo; conditions: 15 minutes after a single injection
# CD34^dim cells = test: Mobilization of CD34^dim cells, flow cytometry; assay type: in vivo; conditions: Rhesus macaques; 4 hours after the last dose of G-CSF; n=3
# Method: Cells were mobilized according to the method of Example 1. A sample of peripheral blood was tested using a flow cytometer for the markers CD34, CD11b, CD14, CD16, CD45, and SSC.
# Rhesus macaques were treated with Gro-β T, […], Gro-β T and AMD3100, or G-CSF alone. A sample of peripheral blood was tested using a flow cytometry.
molecule,measurement,setting,value
"c1cc(CN2CCCNCCNCCCNCC2)ccc1CN1CCCNCCNCCCNCC1 [plerixafor, 1,1′-[1,4-phenylenebis(methylene)]-bis-1,4,8,11-tetra-azacyclotetradecane]",Fold increase vs. baseline following sc administration of AMD3100: Lymphocytes,[1],2.5 fold
same,Fold increase vs. baseline following sc administration of AMD3100: Monocytes,[1],7.9 fold
same,Fold increase vs. baseline following sc administration of AMD3100: Neutrophils,[1],5.0 fold
same,Fold increase vs. baseline following sc administration of AMD3100: WBCs,[1],2.3 fold
same,Quantity of cells observed 4 hours following sc administration of AMD3100: Lymphocytes,[1],1.35E+07
same,Quantity of cells observed 4 hours following sc administration of AMD3100: Monocytes,[1],3.10E+06
same,Quantity of cells observed 4 hours following sc administration of AMD3100: Neutrophils,[1],2.10E+07
same,Quantity of cells observed 4 hours following sc administration of AMD3100: WBCs,[1],3.90E+07
same,Fold increase vs. baseline following sc administration of AMD3100: CD34^+,[2],9.1 fold
same,Fold increase vs. baseline following sc administration of AMD3100: CD34^+ CD90^+ CD54RA^−,[2],14.9 fold
same,Quantity of cells observed 4 hours following sc administration of AMD3100: CD34^+,[2],41054
same,Quantity of cells observed 4 hours following sc administration of AMD3100: CD34^+ CD90^+ CD54RA^−,[2],14820
same,Ratio of fold increase of CD34^+ CD90^+ CD45RA^− cells to other cell populations: CD34^+,[2],1.4
same,Ratio of fold increase of CD34^+ CD90^+ CD45RA^− cells to other cell populations: Lymphocytes,[2],5.7
same,Ratio of fold increase of CD34^+ CD90^+ CD45RA^− cells to other cell populations: Monocytes,[2],1.6
same,Ratio of fold increase of CD34^+ CD90^+ CD45RA^− cells to other cell populations: Neutrophils,[2],3.0
same,Ratio of fold increase of CD34^+ CD90^+ CD45RA^− cells to other cell populations: WBCs,[2],3.7
same,Ratio of fold increase of CD34^+ cells to other cell populations: CD34^+ CD90^+ CD54RA^−,[2],0.7
same,Ratio of fold increase of CD34^+ cells to other cell populations: Lymphocytes,[2],4.0
same,Ratio of fold increase of CD34^+ cells to other cell populations: Monocytes,[2],1.2
same,Ratio of fold increase of CD34^+ cells to other cell populations: Neutrophils,[2],2.1
same,Ratio of fold increase of CD34^+ cells to other cell populations: WBCs,[2],2.3
same,Ratio of quantity of CD34^+ CD90^+ CD45RA^− cells to other cell populations: CD34^+,[2],0.352
same,Ratio of quantity of CD34^+ CD90^+ CD45RA^− cells to other cell populations: Lymphocytes,[2],0.0011
same,Ratio of quantity of CD34^+ CD90^+ CD45RA^− cells to other cell populations: Monocytes,[2],0.0039
same,Ratio of quantity of CD34^+ CD90^+ CD45RA^− cells to other cell populations: Neutrophils,[2],0.0006
same,Ratio of quantity of CD34^+ CD90^+ CD45RA^− cells to other cell populations: WBCs,[2],0.0003
same,Ratio of quantity of CD34^+ cells to other cell populations: CD34^+ CD90^+ CD54RA^−,[2],2.838
same,Ratio of quantity of CD34^+ cells to other cell populations: Lymphocytes,[2],0.0025
same,Ratio of quantity of CD34^+ cells to other cell populations: Monocytes,[2],0.0111
same,Ratio of quantity of CD34^+ cells to other cell populations: Neutrophils,[2],0.0015
same,Ratio of quantity of CD34^+ cells to other cell populations: WBCs,[2],0.0009
same,numbers of T-cells as compared to mice transplanted with Gro-β T and AMD3100-mobilized PBMCs,[3],approximately 60 fold
same,mice died of aGVHD at day 24,[3],5/16
same,mice remained alive at day 60 post-transplant,[3],10/16
Gro-β N69D: variant of Gro-β with aspartic acid in place of asparagine at position 69 (SEQ ID NO: 3),potency of hematopoietic stem and progenitor cell mobilization relative to Gro-β,[4],superior potency
Gro-β T N65D: variant of Gro-β T with aspartic acid in place of asparagine at position 65 (SEQ ID NO: 4),potency of hematopoietic stem and progenitor cell mobilization relative to Gro-β T,"[4]; described in U.S. Pat. No. 6,447,766",substantially greater than that of Gro-β T
Gro-β T: CXCR2 agonist; Gro-β with deletion of the first four amino acids from the N-terminus (SEQ ID NO: 2),potency of hematopoietic stem and progenitor cell mobilization relative to Gro-β,[4],superior to that of Gro-β by multiple orders of magnitude
same,mobilization of stem and progenitor cells,[5],rapid mobilization
"G-CSF: Filgrastim (G-CSF), most common clinical hematopoietic stem cell mobilization protocol (protein, chains of the INN, looked up) MTPLGPASSLPQSFLLKCLEQVRKIQGDGAALQEKLCATYKLCHPEELVLLGHSLGIPWAPLSSCPSQALQLAGCLSQLHSGLFLYQGLLQALEGISPELGPTLDTLQLDVADFATTIWQQMEELGMAPALQPTQGAMPAFASAFQRRAGGVLVASHLQSFLEVSYRVLRHLAQP",increase over baseline in the number of CD34^dim cells,CD34^dim cells,about a nine-fold increase
same,numbers of T-cells as compared to mice transplanted with Gro-β T and AMD3100-mobilized PBMCs,[3],approximately 10 fold
same,mice died of aGVHD at day 24,[3],3/16
same,mice remained alive at day 60 post-transplant,[3],11/16
